How the values were obtained:
[1] = target: T1, p38 MAPKα isoform (MAPK14) (Homo sapiens, UniProt Q16539); assay: p38 MAPKα enzyme inhibition (Z-LYTE FRET); type: biochemical; settings: Table 2B, unit inferred; read-out: p38 MAPKα (Enzyme Profile)
T1 construct: purchased Life Technologies
Procedure: (§1) The enzyme inhibitory activities of compounds disclosed herein were determined by FRET using synthetic peptides labelled with both donor and acceptor fluorophores (Z-LYTE, Life Technologies, Paisley, UK).
The inhibitory activities of compounds of the invention against the p38 MAPKα isoform (MAPK14: Life Technologies), were evaluated indirectly by determining the level of activation/phosphorylation of the target peptide of the p38 MAPKα down-stream molecule, MAPKAP-K2. The enzyme (40 ng/mL, 2.5 μL) was incubated with the test compound (2.5 μL of either 40 μg/mL, 12 μg/mL, 4 μg/mL, 1.2 μg/mL, 0.4 μg/mL, 0.12 μg/mL, 0.04 μg/mL, 0.012 μg/mL, 0.004 μg/mL or 0.0012 μg/mL) for 2 h at RT. […] Development reagent (protease, 5 μL) was added for 1 h prior to detection in a fluorescence microplate reader (EnVision, Perkin Elmer, Waltham, Mass., USA).
(§2) In all cases, the site-specific protease cleaves non-phosphorylated peptide only and eliminates the FRET signal. Phosphorylation levels of each reaction were calculated using the ratio of coumarin emission (donor) over fluorescein emission (acceptor), for which low ratios indicate high phosphorylation and high ratios indicate low phosphorylation levels.

p38MAPKγ (MAPK12) = target: T2, p38MAPKγ (MAPK12) (Homo sapiens, UniProt P53778); assay: p38 MAPKγ enzyme inhibition (Z-LYTE FRET); type: biochemical; settings: Table 2B, unit inferred; read-out: p38 MAPKγ (Enzyme Profile)
T2 construct: purchased Life Technologies
T2 sequence (P53778 1-367): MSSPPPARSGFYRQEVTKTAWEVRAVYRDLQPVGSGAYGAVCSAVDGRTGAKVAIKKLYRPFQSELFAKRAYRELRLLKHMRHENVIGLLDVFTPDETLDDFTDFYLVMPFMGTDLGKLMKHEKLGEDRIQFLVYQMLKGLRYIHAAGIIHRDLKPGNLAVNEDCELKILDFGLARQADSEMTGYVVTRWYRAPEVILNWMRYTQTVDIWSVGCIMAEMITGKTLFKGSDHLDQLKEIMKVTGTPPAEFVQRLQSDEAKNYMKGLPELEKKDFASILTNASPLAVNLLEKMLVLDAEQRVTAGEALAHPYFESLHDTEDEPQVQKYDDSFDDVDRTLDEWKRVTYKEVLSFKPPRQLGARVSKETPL
Procedure: as §1
The inhibitory activities of compounds of the invention against p38MAPKγ (MAPK12: Life Technologies), were evaluated by determining the level of activation/phosphorylation of the target peptide. The enzyme (800 ng/mL, 2.5 μL) was incubated with the test compound (2.5 μL at either 40 μg/mL, 12 μg/mL, 4 μg/mL, 1.2 μg/mL, 0.4 μg/mL, 0.12 μg/mL, 0.04 μg/mL, 0.012 μg/mL, 0.004 μg/mL or 0.0012 μg/mL) for 2 h at RT. The FRET peptides (8 μM, 2.5 μL), and appropriate ATP solution (2.5 μL, 400 μM) were then added to the enzymes/compound mixtures and incubated for 1 h at RT. Development reagent (protease, 5 μL) was added for 1 h prior to detection in a fluorescence microplate reader (EnVision, Perkin Elmer).
as §2

T1 sequence (Q16539 whole entry, canonical isoform): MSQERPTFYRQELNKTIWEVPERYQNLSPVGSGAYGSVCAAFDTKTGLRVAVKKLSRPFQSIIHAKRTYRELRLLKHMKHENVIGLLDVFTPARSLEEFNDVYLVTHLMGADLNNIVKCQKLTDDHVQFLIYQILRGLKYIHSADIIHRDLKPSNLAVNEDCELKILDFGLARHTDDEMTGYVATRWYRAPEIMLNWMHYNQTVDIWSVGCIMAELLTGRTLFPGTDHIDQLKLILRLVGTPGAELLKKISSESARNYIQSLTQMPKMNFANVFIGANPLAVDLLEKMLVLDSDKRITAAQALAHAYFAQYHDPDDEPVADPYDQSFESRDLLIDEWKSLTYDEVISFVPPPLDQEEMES

SMILES	IC50 [1] [nM]	IC50 (p38MAPKγ (MAPK12)) [nM]
Cc1ccc(-n2nc(C(C)(C)C)cc2NC(=O)Nc2ccc(OCc3ccnc(Nc4cnc(C(=O)N5CCC(C)CC5)cn4)c3)c3ccccc23)cc1 [Example 185, 1-(3-(tert-butyl)-1-(p-tolyl)-1H-pyrazol-5-yl)-3-(4-((2-((5-(4-methylpiperidine-1-carbonyl)pyrazin-2-yl)amino)pyridin-4-yl)methoxy)naphthalen-1-yl) urea]	110	2510
CCc1cncc(Nc2cc(COc3ccc(NC(=O)Nc4cc(C(C)(C)C)nn4-c4cccc(COC)c4)c4ccccc34)ccn2)n1 [Example 222, 1-(3-(tert-butyl)-1-(3-(methoxymethyl)phenyl)-1H-pyrazol-5-yl)-3-(4-((2-((6-ethylpyrazin-2-yl)amino)pyridin-4-yl)methoxy)naphthalen-1-yl)urea]	23	175
COc1cc(C)cc(-n2nc(C(C)(C)C)cc2NC(=O)Nc2ccc(OCc3ccnc(Nc4cnc(C(=O)N5CCCC5)cn4)c3)c3ccccc23)c1 [Example 227, 1-(3-(tert-butyl)-1-(3-methoxy-5-methylphenyl)-1H-pyrazol-5-yl)-3-(4-((2-((5-(pyrrolidine-1-carbonyl)pyrazin-2-yl)amino)pyridin-4-yl)methoxy)naphthalen-1-yl)urea]	43	> 13800
Cc1ccc(-n2nc(C(C)(C)C)cc2NC(=O)Nc2ccc(OCc3ccnc(Nc4cnc(C(=O)N5CCS(=O)(=O)CC5)cn4)c3)c3ccccc23)cc1 [Example 243, 1-(3-(tert-butyl)-1-(p-tolyl)-1H-pyrazol-5-yl)-3-(4-((2-((5-(1,1-dioxidothiomor-pholine-4-carbonyl)pyrazin-2-yl)amino)pyridin-4-yl)methoxy)naphthalen-1-yl) urea]	8.5	96
COCc1cccc(-n2nc(C(C)(C)C)cc2NC(=O)Nc2ccc(OCc3ccnc(Nc4cnc(C(=O)NCCN5CCOCC5)cn4)c3)c3ccccc23)c1 [Example 270, 5-((4-(((4-(3-(3-(tert-butyl)-1-(3-(methoxymethyl)phenyl)-1H-pyrazol-5-yl)ureido)naphthalen-1-yl)oxy)methyl)pyridin-2-yl)amino)-N-(2-morpholinoethyl) pyrazine-2-carboxamide]	4.5	66
COC1CN(C(=O)c2cnc(Nc3cc(COc4ccc(NC(=O)Nc5cc(C(C)(C)C)nn5-c5ccc(C)cc5)c5ccccc45)ccn3)cn2)C1 [Example 163, 1-(3-(tert-butyl)-1-(p-tolyl)-1H-pyrazol-5-yl)-3-(4-((2-((5-(3-methoxyazetidine-1-carbonyl)pyrazin-2-yl)amino)pyridin-4-yl)methoxy)naphthalen-1-yl) urea]	19	389
CC(C)(C)c1cc(NC(=O)Nc2ccc(OCc3ccnc(Nc4cnccn4)c3)c3ccccc23)n(-c2cccc(CCO)c2)n1 [Example 237, 1-(3-(tert-butyl)-1-(3-(2-hydroxyethyl)phenyl)-1H-pyrazol-5-yl)-3-(4-((2-(pyrazin-2-ylamino)pyridin-4-yl)methoxy)naphthalen-1-yl)urea]	8.4	29
Cc1ccc(-n2nc(C(C)(C)C)cc2NC(=O)Nc2ccc(OCc3ccnc(Nc4cncc(C5CC5)n4)c3)c3ccccc23)cc1C [Example 145, 1-(3-(tert-butyl)-1-(3,4-dimethylphenyl)-1H-pyrazol-5-yl)-3-(4-((2-((6-cyclopropylpyrazin-2-yl)amino)pyridin-4-yl)methoxy)naphthalen-1-yl)urea]	43	260
COc1cncc(Nc2cc(COc3ccc(NC(=O)Nc4cc(C(C)(C)C)nn4-c4ccc(C)s4)c4ccccc34)ccn2)n1 [Example 109, 1-(3-(tert-butyl)-1-(5-methylthiophen-2-yl)-1H-pyrazol-5-yl)-3-(4-((2-((6-methoxypyrazin-2-yl)amino)pyridin-4-yl)methoxy)naphthalen-1-yl) urea]	115	1330
Cc1cc(-n2nc(C(C)(C)C)cc2NC(=O)Nc2ccc(OCc3ccnc(Nc4cncc(N(C)C)n4)c3)c3ccccc23)cs1 [Example 112, 1-(3-(tert-butyl)-1-(5-methylthiophen-3-yl)-1H-pyrazol-5-yl)-3-(4-((2-((6-(dimethylamino)pyrazin-2-yl)amino)pyridin-4-yl)methoxy)naphthalen-1-yl) urea]	43	277
COCCOc1ccc(-n2nc(C(C)(C)C)cc2NC(=O)Nc2ccc(OCc3ccnc(Nc4cnccn4)c3)c3ccccc23)cc1C [Example 157, 1-(3-(tert-butyl)-1-(4-(2-methoxyethoxy)-3-methyl-phenyl)-1H-pyrazol-5-yl)-3-(4-((2-(pyrazin-2-ylamino)pyridin-4-yl)methoxy)naphthalen-1-yl) urea]	23	> 14900
CCc1cccc(-n2nc(C(C)(C)C)cc2NC(=O)Nc2ccc(OCc3ccnc(Nc4cnc(C(=O)N5CCCC5)cn4)c3)c3ccccc23)c1 [Example 230, 1-(3-(tert-butyl)-1-(3-ethyl-phenyl)-1H-pyrazol-5-yl)-3-(4-((2-((5-(pyrrolidine-1-carbonyl)pyrazin-2-yl)amino)pyridin-4-yl)methoxy)naphthalen-1-yl)urea]	43	> 14100
Cc1cc(-n2nc(C(C)(C)C)cc2NC(=O)Nc2ccc(OCc3ccnc(Nc4cnccn4)c3)c3ccccc23)ccn1 [Example 265, 1-(3-(tert-butyl)-1-(2-methyl-pyridin-4-yl)-1H-pyrazol-5-yl)-3-(4-((2-(pyrazin-2-ylamino)pyridin-4-yl)methoxy)naphthalen-1-yl) urea]	11	57
CCCc1cncc(Nc2cc(COc3ccc(NC(=O)Nc4cc(C(C)(C)C)nn4-c4cccc(OC)c4)c4ccccc34)ccn2)n1 [Example 189, 1-(3-(tert-butyl)-1-(3-methoxyphenyl)-1H-pyrazol-5-yl)-3-(4-((2-((6-propyl-pyrazin-2-yl)amino)pyridin-4-yl)methoxy)naphthalen-1-yl)urea]	72	579
COCc1cnc(Nc2cc(COc3ccc(NC(=O)Nc4cc(C(C)(C)C)nn4-c4cccc(C)c4)c4ccccc34)ccn2)cn1 [Example 195, 1-(3-(tert-butyl)-1-(m-tolyl)-1H-pyrazol-5-yl)-3-(4-((2-((5-(methoxymethyl)pyrazin-2-yl)amino)pyridin-4-yl)methoxy)naphthalen-1-yl) urea]	15	245
COCc1cccc(-n2nc(C(C)(C)C)cc2NC(=O)Nc2ccc(OCc3ccnc(Nc4cnc(CN5CCN(C)CC5)cn4)c3)c3ccccc23)c1 [Example 276, 1-(3-(tert-butyl)-1-(3-(methoxymethyl)phenyl)-1H-pyrazol-5-yl)-3-(4-((2-((5-((4-methylpiperazin-1-yl)methyl)pyrazin-2-yl)amino)pyridin-4-yl)methoxy)naphthalen-1-yl)urea]		8.4
CCN1CCN(C(=O)c2cnc(Nc3cc(COc4ccc(NC(=O)Nc5cc(C(C)(C)C)nn5-c5ccc(C)cc5)c5ccccc45)ccn3)cn2)CC1 [Example 271, 1-(3-(tert-butyl)-1-(p-tolyl)-1H-pyrazol-5-yl)-3-(4-((2-((5-(4-ethylpiperazine-1-carbonyl)pyrazin-2-yl)amino)pyridin-4-yl)methoxy)naphthalen-1-yl)urea]		108
CC(C)(C)c1cc(NC(=O)Nc2ccc(OCc3ccnc(Nc4cnc(CO)cn4)c3)c3ccccc23)n(-c2cccc(Cl)c2)n1 [Example 256, 1-(3-(tert-butyl)-1-(3-chloro-phenyl)-1H-pyrazol-5-yl)-3-(4-((2-((5-(hydroxymethyl)pyrazin-2-yl)amino)pyridin-4-yl)methoxy)naphthalen-1-yl)urea]		> 15400
Cc1ccc(-n2nc(C(C)(C)C)cc2NC(=O)Nc2ccc(OCc3ccnc(Nc4cnc(C(=O)NCCN5CCCC5)cn4)c3)c3ccccc23)cc1 [Example 86]		19
Cc1ccc(-n2nc(C(C)(C)C)cc2NC(=O)Nc2ccc(OCc3ccnc(Nc4cnc(C(=O)NC5CN(C)C5)cn4)c3)c3ccccc23)cc1 [Example 89]		42

Reference: patent US11142515B2, “Pyrazolyl-ureas as kinase inhibitors” (RESPIVERT LIMITED, priority 2014, dated 2021)
